{"source": "ChEMBL document CHEMBL1141321", "about": "“Amphidinolides B6 and B7, cytotoxic macrolides from a symbiotic dinoflagellate Amphidinium species” (J Nat Prod, 2007)", "data": [{"test_system": "DG-75", "experiment": "Cytotoxicity against human DG75 cells", "assay_type": "functional, cell-based", "units": {"IC50": "µg/mL"}, "values": [{"smiles": "C=C1/C=C(\\C)[C@@H](C)C[C@H](O)CC(=O)[C@H](O)[C@@H](O)[C@H](C)C[C@H](C)OC(=O)[C@@H](C)[C@@H](O)CCCC[C@@H]2O[C@H]2C[C@H](C)C1", "note": "[AMPHIDINOLIDE B6]", "IC50": 0.02}, {"smiles": "C=C1/C=C(\\C)[C@@H](C)C[C@H](O)CC(=O)[C@H](O)[C@@H](O)[C@H](C)C[C@H](C)OC(=O)/C(C)=C/CC/C=C/[C@@H]2O[C@H]2C[C@H](C)C1", "note": "[AMPHIDINOLIDE B7]", "IC50": 0.4}, {"smiles": "C=C1/C=C(\\C)[C@@H](C)C[C@H](O)CC(=O)[C@H](O)[C@@H](O)[C@H](C)C[C@H](CO)OC(=O)/C(C)=C/CC/C=C/[C@@H]2O[C@H]2C[C@H](C)C1", "note": "[AMPHIDINOLIDE H]", "IC50": 0.001}]}]}
